Data on one compound can be found in publication PMC7462607 (eLife, 2020).

Test [1] relates to CDK12 G731E or G731R knock-in A549 cells. Briefly: Cell viability assay, CDK12 G731E or G731R knock-in A549 cells. As to conditions: Homo sapiens, four knock-in clones. The format is cell-based. As to the method: Seven hundred A549 cells or 1,000 HCT-116 cells in 50 µL of medium were plated per well in 384-well flat clear bottom white polystyrene TC-treated microplates (Corning, Corning, USA). After overnight attachment, cells were dosed with a serial dilution of HQ461 with a D300e digital dispenser (Tecan, Männedorf, Switzerland). Cell survival was measured 72 hr later using CellTiter-Glo luminescent cell viability assay kit (Promega, Madison, USA) following vendor instructions. Luminescence was recorded by EnVison multimode plate reader (PerkinElmer, Waltham, USA). IC50 was determined with GraphPad Prism using baseline correction (by normalizing to DMSO control), the asymmetric (five parameter) equation, and least squares fit.
An sgRNA targeting CDK12 (5’-[…]-3’) was cloned into the pSpCas9(BB)−2A-eGFP (PX458) vector (Addgene 48138). For CDK12 G731E/R knock-in, 1 million A549 cells were nucleofected (using 4D-Nucleofector, Lonza, Basel, Switzerland) with PX458-sgCDK12 and single-stranded oligodeoxynucleotides (G731E: 5’-ttatatacttggccataggttccttctccaataatTTCaataatgtcaaacttgtccacacagcgtttcccccagtc-3’; G731R: 5’-ttatatacttggccataggttccttctccaataatGCGaataatgtcaaacttgtccacacagcgtttcccccagtc-3’). Afterwards, cells were exposed to 5 µM 0461 for 2 weeks to select for cells with CDK12 G731E/R knock-in. […]

Test [2] concerns the target T1, CDK12/CCNK with DDB1-CUL4-RBX1 (Homo sapiens, UniProt Q9NYV4).
T1 construct: made in house; host or cells: 293F cells (CDK12/CCNK, UBA1, UBE2G1, UBE2D3, CUL4A/RBX1); Sf9 (His-DDB1); E. coli BL21(DE3) (His-ubiquitin)
Briefly: In vitro ubiquitination of CCNK. The format is biochemical. As to conditions: E1, E2, E3 and HQ461 present. The method, then: Human Ubiquitin ORF was cloned into pET28a vector with an N-terminal 6xHis tag. The resulting pET28a-6xHis-Ub plasmid was transformed into the E. coli strain BL21 (DE3) and grown at 37°C until OD600 reached ~0.8. His-Ub expression was induced overnight by 0.5 mM IPTG at 18°C. Cells were collected by centrifugation at 4000 g and resuspended with lysis buffer containing 50 mM Tris-HCl, pH 7.5, 500 mM NaCl, 20 mM imidazole, 5% glycerol. Cell lysis was performed by French Press. After 20,000 g centrifugation for 1 hr at 4°C, the supernatant was incubated with Ni-NTA resin. After extensive wash with lysis buffer, His-Ub was eluted from Ni-NTA resin with 50 mM Tris-HCl, pH 7.5, 500 mM NaCl, 300 mM imidazole, 5% glycerol. Fractions containing His-Ub were pooled and concentrated, followed by gel filtration on a Superdex 200 10/300 GL column (GE Healthcare, Chicago, USA) in gel filtration buffer (50 mM Tris-HCl, pH7.5, 10 mM NaCl, 1 mM DTT). Fractions containing His-Ub were pooled and concentrated by a 3 KDa MWCO Ultra centrifugal filter (Amicon), flash frozen with liquid nitrogen, and stored at −80°C before use.
Human ORFs encoding UBA1 (residues 49–1058, NP_003325.2), UBE2G1 (NP_003333.1), UBE2D3 (NP_003331.1), CUL4A (NP_001008895.1) were cloned into pPB-CAG-1xFLAG vector. ORF encoding human RBX1 (NP_055063.1) was cloned into pPB-CAG vector without a tag. […]

SMILES strings stand for the structures.

T1 sequence (Q9NYV4 1-1481 isoform Q9NYV4-2): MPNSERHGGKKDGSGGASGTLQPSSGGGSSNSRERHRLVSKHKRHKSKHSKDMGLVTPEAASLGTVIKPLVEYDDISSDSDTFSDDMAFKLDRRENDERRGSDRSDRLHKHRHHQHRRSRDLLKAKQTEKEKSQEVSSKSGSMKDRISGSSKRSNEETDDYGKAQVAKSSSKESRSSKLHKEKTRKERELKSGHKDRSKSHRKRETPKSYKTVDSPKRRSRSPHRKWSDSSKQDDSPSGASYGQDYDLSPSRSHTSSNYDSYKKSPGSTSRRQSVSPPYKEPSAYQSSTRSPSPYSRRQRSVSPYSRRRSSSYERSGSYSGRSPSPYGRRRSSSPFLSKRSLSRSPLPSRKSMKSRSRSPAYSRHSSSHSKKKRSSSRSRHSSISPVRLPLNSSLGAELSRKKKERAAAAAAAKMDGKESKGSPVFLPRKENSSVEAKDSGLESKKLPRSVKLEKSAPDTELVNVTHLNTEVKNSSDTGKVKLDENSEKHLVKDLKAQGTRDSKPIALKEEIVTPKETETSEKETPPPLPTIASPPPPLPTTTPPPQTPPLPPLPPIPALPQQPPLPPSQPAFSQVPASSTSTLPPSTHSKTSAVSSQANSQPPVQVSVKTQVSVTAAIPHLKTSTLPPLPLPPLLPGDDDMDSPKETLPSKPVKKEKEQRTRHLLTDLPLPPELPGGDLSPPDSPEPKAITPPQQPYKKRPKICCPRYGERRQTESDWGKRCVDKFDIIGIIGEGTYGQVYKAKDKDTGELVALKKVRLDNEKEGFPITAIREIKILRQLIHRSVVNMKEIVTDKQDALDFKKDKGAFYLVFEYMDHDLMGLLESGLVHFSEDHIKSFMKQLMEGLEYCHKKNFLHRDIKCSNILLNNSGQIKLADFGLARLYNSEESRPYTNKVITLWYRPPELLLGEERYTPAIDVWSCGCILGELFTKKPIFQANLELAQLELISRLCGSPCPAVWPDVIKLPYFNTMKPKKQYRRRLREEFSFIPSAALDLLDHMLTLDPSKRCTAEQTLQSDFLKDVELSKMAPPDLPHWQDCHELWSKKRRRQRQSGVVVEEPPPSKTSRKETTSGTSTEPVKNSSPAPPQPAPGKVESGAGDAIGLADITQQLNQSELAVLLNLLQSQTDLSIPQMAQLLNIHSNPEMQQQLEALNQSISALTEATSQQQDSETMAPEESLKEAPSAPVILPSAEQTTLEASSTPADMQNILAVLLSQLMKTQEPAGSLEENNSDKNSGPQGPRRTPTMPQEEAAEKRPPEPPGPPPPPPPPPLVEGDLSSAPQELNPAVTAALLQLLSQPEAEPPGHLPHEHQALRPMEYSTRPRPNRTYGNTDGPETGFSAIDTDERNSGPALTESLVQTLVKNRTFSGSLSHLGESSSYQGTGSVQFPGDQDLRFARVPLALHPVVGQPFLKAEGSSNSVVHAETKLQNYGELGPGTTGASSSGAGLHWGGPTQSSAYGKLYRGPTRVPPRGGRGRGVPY
T1 sequence (O75909 whole entry partner): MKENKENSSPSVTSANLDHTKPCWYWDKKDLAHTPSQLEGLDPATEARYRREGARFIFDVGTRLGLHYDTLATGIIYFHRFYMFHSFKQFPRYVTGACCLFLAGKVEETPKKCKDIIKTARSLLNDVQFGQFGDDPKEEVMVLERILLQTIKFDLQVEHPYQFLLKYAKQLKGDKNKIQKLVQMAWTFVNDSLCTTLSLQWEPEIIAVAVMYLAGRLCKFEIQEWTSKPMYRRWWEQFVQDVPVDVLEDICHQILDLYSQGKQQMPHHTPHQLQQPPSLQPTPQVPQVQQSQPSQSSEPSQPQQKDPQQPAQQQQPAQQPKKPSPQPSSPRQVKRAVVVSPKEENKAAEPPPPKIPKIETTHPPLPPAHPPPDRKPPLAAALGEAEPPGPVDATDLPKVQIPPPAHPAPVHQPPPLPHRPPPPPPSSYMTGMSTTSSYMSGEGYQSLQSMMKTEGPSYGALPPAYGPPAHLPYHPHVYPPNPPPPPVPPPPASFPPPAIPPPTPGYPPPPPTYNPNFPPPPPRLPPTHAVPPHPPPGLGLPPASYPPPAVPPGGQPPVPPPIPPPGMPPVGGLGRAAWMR
T1 sequence (Q16531 whole entry partner): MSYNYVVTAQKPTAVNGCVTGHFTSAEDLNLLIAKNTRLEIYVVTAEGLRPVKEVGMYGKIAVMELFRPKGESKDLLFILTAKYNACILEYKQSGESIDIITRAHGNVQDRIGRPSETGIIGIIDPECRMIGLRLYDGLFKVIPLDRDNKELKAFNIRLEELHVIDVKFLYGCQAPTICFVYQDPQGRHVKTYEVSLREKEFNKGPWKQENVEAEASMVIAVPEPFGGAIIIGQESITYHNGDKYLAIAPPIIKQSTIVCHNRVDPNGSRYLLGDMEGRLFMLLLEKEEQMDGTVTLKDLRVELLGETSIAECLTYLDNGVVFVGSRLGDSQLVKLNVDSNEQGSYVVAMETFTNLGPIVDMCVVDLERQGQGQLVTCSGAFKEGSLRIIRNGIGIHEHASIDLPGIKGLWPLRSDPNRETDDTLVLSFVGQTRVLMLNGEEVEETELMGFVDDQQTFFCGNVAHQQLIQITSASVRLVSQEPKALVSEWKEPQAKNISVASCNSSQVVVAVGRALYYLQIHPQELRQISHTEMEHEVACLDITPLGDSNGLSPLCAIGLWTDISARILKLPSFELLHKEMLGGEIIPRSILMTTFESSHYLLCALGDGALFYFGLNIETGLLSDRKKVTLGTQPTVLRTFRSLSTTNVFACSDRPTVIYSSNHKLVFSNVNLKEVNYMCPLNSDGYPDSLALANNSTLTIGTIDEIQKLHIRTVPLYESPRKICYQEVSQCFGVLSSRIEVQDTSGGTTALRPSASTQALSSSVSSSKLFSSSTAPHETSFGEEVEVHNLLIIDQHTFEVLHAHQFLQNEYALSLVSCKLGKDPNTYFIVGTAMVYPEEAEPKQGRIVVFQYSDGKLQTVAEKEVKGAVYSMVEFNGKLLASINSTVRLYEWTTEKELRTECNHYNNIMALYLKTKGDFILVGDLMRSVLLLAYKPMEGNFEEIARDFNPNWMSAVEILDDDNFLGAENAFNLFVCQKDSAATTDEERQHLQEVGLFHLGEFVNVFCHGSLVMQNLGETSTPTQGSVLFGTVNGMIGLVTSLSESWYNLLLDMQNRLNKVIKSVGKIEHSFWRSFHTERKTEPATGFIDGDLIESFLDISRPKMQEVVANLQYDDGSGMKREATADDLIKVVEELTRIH
T1 sequence (Q13619 whole entry partner): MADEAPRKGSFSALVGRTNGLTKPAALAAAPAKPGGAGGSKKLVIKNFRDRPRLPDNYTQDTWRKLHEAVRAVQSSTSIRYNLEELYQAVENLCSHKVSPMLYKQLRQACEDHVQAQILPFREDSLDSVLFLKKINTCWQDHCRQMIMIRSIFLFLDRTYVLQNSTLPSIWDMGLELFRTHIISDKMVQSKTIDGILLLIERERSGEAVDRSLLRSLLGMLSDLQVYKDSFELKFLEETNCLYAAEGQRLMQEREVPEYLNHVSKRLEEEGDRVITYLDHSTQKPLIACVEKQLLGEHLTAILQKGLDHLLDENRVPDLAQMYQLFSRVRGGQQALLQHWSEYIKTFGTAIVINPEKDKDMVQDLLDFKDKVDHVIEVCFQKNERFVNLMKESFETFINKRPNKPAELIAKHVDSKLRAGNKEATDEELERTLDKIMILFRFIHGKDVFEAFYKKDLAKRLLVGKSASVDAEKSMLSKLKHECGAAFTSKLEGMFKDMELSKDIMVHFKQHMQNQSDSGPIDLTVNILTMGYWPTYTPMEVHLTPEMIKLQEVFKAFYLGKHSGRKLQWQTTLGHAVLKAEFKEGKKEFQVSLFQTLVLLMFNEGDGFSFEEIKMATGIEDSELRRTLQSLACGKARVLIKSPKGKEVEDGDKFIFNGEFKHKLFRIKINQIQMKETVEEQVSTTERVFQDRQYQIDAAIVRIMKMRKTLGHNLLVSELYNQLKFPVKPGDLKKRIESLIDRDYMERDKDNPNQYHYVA
T1 sequence (P62877 whole entry partner): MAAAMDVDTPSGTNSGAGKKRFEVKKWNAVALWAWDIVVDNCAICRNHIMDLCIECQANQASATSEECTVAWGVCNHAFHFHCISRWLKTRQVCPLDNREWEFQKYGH

For orientation: IC50 means the point on the concentration scale where inhibition reaches its midpoint. The low end stands for inhibition by little substance, the high end for a need for much substance. The compound `Cc1cccc(Nc2nc(CC(=O)Nc3ncc(C)s3)cs2)n1` [HQ461, 2-(2-((6-methylpyridin-2-yl)amino)thiazol-4-yl)-N-(5-methylthiazol-2-yl)acetamide] registered a half-inhibitory concentration (IC50) in test [1] of 25.2 to 36.5 µM. Also, the in vitro polyubiquitination result in test [2] was “polyubiquitination of CCNK but not CDK12”.
